Entries after “also recorded” stand apart in the source; their conditions may differ. Read-outs that look alike come from different tables or passages of the source.
Experiments:
EphA2 [1] = molecular target: T1, EphA2 (Mus musculus, UniProt Q03145); assay: Immobilized biotinylated synthetic peptide capturing Eph receptor Fc (ELISA); type: binding; conditions: biotinylated peptide on streptavidin-coated wells
T1 construct: purchased R&D Systems
Target sequence in this assay (Q03145 with tags, fused parts or gaps limits assumed): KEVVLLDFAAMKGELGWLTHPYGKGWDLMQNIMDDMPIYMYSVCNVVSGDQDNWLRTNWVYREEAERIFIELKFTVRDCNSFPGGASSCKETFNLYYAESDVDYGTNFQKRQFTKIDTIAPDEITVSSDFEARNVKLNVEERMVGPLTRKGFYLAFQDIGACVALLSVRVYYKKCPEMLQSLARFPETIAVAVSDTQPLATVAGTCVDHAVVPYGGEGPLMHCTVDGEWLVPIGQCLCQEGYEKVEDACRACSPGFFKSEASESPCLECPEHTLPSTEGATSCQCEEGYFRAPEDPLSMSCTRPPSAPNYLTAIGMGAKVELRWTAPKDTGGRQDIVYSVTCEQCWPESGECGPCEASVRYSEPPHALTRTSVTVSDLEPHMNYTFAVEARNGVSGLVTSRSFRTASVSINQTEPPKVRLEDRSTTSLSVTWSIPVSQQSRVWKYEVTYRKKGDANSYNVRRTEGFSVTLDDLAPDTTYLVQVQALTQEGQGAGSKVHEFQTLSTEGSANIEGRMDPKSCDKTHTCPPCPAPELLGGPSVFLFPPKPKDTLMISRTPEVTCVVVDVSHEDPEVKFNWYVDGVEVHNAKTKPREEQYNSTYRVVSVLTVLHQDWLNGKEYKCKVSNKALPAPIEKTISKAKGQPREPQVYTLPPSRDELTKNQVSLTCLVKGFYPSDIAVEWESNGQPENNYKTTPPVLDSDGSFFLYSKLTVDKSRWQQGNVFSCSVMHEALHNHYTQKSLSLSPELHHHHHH
From the text: (§3) Bound Eph receptors were detected with anti-human Fc antibody conjugated to alkaline phosphatase (AP) (Promega, Madison, Wis.). […] Substrates were 2,2′-azino-bis(3-ethylbenzthiazoline-6-sulfonic acid) for horseradish peroxidase and p-nitrophenyl phosphate for AP.

EphA receptors = assay: as above; type: binding; conditions: Fc fusion proteins of EphA receptors
From the text: as §3

EphB receptors = assay: as above; type: binding
From the text: as §3

MAP kinase = MAP kinase phosphorylation in HUVE cells (immunoblot); type: cell-based, human
From the text: Cell lysates were used to immunoprecipitate EphA2 as described above or probed by immunoblotting with anti-phospho-p44/p42 MAPK antibody (Cell Signaling Technology, Beverly, Mass.) followed by an anti-mouse IgG peroxidase-conjugated antibody (Arnersham) and re-probed with an anti-ERK2 antibody (Santa Cruz Biotechnology, Santa Cruz, Calif.) followed by a secondary anti-rabbit IgG peroxidase-conjugated antibody (Amersham). Erk2 (p42 MAP kinase) is the major phosphorylated form present. EphA2 was immunoprecipitated (IP) and probed by immunoblotting with anti-phosphotyrosine (PTyr) or anti-EphA2 antibodies.

EphA2 [2] = molecular target: T1, EphA2; assay: Ephrin-AP binding to Eph receptor-coated wells in presence of peptide; conditions: ephrin-A5-AP, ephrin-A6-AP
Target sequence in this assay (Q03145 with tags, fused parts or gaps limits assumed): as above
Procedure: Ephrin binding to Eph receptor-coated plates was quantified using alkaline phosphatase (AP) fusion proteins of ephrin-A5 and ephrin-A6 (plasmids encoding these AP-fusions are described above). Diluted cell culture supernatants containing ephrin-A5-AP and ephrin-A6-AP were co-incubated with peptides in microtiter wells coated with EphA2 Fc or EphA4 Fc. Ephrins remaining bound after washing were detected by measuring AP activity.

EphA4 [3] = molecular target: T2, EphA4 (Homo sapiens, UniProt P54764); assay: as above; conditions: for Antagonism of ephrin-A5 binding to EphA4: ephrin-A5 AP
T2 construct: immobilized EphA4 receptor extracellular domain fused to a human Fc region
Procedure: Diluted cell culture supernatants containing ephrin-A5-AP and ephrin-A6-AP were co-incubated with peptides in microtiter wells coated with EphA2 Fc or EphA4 Fc. Ephrins remaining bound after washing were detected by measuring AP activity.

EphA2 [4] = molecular target: T1, EphA2; assay: Peptide competition with phage clones on immobilized EphA2 Fc; type: binding
Target sequence in this assay (Q03145 26-538 limits assumed): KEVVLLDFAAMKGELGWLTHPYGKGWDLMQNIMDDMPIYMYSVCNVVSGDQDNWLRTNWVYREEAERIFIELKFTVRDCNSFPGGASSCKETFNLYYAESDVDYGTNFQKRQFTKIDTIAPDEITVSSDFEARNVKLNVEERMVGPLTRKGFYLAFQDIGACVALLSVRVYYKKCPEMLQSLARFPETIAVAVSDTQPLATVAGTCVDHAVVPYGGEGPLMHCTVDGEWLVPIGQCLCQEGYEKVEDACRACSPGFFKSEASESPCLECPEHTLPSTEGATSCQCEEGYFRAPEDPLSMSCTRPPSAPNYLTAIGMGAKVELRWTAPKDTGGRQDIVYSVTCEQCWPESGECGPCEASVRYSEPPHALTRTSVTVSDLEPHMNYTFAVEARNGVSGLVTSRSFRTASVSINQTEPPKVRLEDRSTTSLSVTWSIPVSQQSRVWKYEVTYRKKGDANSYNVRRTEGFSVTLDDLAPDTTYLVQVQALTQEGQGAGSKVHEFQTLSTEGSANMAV
Procedure: A histidine-tagged mouse EphA2 Fc fusion protein (R&D Systems, Minneapolis, Minn.) was incubated overnight at 4° C. in nickel-nitrilotriacetic acid (Ni-NTA)-coated ELISA plates at concentrations of 1-10 μg/ml in Tris-buffered saline (TBS) (150 mM NaCl, 50 mM Tris-HCl, pH 7.5). Wells were blocked with 0.5% bovine serum albumin (BSA) in TBS, and rinsed with binding buffer (TBS, 1 mM CaCl2, 0.1% Tween 20).
For peptide competition assays with phage clones, Ni-NTA microtiter wells coated with EphA2 Fc were incubated for 1 hour at room temperature with phage clones diluted between 1:600 and 1:9,000 in binding buffer (100 μl/well). Unbound phage were washed away and competing peptides were added for 1 hour. Alternatively, peptides and phage were co-incubated together.

EphB4 [5] = assay: Binding specificity of synthetic peptides; conditions: immobilized synthetic peptide
From the text: as §3

EphB4 [6] = assay: Binding specificity of phage clones on Eph receptor-coated plates; conditions: phage clones displaying the peptides
From the text: (§4) Phage binding to Eph receptor-coated plates was quantified using an anti-phage antibody conjugated to horseradish peroxidase (M13 phage detection kit, Amersham Pharmacia Biotech., Piscataway, N.J.).

EphA7 = assay: Binding selectivity of phage clones isolated on EphA7
Procedure: (§1) Alternatively, peptides and phage were co-incubated together.
(§2) In this example additional phage panning experiments were performed to identify peptides that bind to EphA5 and EphA7 (FIG. 18A). EphA5 and EphA7 are two EphA receptors that are closely related to EphA4 but are differentially expressed in the developing and adult nervous system (Ellis, J. et al. 1995 Mechanisms of Development 52:319-341; Mori, T. et al 1995 Brain Res Mol Brain Res 34:154-160; Olivieri, G. & Miescher, G. C. 1999 J Histochem Cytochem 47:855-861; Zhang, J. H. et al 1997 Brain Res Mol Brain Res 47:202-214). Three different peptide sequences that bind each receptor were identified.

EphA4 [7] = molecular target: T2, EphA4; assay: Binding specificity of synthetic peptides; conditions: compared to other EphA and EphB receptors
From the text: as §3

EphA4 [8] = molecular target: T2, EphA4; assay: Binding selectivity of phage clones isolated on EphA4; conditions: compared to other EphA or EphB4 receptors
From the text: as §4
In this example phage display was used to identify peptides that bind to an EphA4 receptor. An M13 phage library displaying random 12-mer peptides was panned on the immobilized EphA4 receptor extracellular domain fused to a human Fc region (FIG. 12A). The phage clones remaining bound to EphA4 were eluted with a low pH solution and amplified.

EphA4 [9] = molecular target: T3, EphA4 (Mus musculus, UniProt Q03137); assay: Ephrin-A3 Fc induced EphA4 tyrosine phosphorylation in hippocampal slices; type: cell-based; conditions: micromolar peptide
T3 construct: antagonize ephrin-A3-induced tyrosine phosphorylation of endogenous EphA4; from tissue; host or cells: mouse hippocampal slices

neural crest cells = assay: Neural crest cell migration assay in chick trunk explants; type: cell-based; conditions: 24 hours, 13 μM KYL peptide or 10 μg/ml EphA4-Fc
Procedure: In this example to address whether the EphA4-binding peptides can inhibit endogenous ephrin-EphA4 physiological function, a neural crest cell migration assay (McLennan, R. & Krull, C. E. 2002 Gene Expr 10:295-305) was utilized. […] The migration of neural crest cells was determined by staining for HNK-1 for neural crest cells and ephrin-B1 to label the caudal sclerotome. […] Neural crest cells migrated properly into the rostral sclerotome in explants treated with control Fc.

EphA5 = assay: Binding selectivity of phage clones isolated on EphA5
Procedure: as §1, §2

T3 sequence (Q03137 20-986): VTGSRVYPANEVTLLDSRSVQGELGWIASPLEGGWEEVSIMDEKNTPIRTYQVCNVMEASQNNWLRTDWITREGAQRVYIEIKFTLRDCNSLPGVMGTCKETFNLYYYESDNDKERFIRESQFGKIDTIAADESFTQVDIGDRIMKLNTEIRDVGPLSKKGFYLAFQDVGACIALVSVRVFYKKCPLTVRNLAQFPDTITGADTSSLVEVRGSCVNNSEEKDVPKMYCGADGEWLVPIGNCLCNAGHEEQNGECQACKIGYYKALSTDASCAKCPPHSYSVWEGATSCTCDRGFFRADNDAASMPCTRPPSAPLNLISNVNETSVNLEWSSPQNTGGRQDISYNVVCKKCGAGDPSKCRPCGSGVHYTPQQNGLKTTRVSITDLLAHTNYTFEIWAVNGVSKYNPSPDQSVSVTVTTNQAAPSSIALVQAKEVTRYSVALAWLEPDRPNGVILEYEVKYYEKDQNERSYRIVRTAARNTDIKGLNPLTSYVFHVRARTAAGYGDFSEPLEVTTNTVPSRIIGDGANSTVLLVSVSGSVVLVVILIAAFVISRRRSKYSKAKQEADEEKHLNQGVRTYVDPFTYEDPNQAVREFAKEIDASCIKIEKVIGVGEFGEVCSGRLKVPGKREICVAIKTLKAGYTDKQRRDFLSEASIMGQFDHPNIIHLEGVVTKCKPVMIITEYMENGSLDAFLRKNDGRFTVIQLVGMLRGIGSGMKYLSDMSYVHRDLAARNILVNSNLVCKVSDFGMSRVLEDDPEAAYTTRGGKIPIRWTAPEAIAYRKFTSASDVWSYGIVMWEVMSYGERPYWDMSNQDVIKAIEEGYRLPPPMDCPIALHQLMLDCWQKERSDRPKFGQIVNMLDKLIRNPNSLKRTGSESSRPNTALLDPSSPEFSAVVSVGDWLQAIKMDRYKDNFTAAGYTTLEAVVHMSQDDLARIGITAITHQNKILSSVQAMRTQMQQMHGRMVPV
T2 sequence (P54764 20-547 limits assumed, species assumed): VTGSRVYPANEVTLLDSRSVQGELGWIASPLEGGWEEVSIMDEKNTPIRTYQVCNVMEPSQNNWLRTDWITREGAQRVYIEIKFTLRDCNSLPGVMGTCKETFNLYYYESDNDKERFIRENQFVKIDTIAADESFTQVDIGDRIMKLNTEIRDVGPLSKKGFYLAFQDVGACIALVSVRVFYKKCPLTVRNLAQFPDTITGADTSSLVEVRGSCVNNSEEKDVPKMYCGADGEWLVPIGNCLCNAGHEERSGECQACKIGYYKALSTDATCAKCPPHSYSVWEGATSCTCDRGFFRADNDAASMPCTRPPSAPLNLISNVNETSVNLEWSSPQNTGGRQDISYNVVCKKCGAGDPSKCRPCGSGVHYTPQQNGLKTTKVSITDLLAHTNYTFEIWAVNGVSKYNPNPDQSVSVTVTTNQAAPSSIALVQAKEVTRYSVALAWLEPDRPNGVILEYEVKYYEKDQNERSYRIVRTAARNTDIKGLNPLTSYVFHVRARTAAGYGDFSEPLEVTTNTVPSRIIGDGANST

Question: With CSCC[C@H](NC(=O)[C@H](CCSC)NC(=O)[C@@H]1CCCN1C(=O)[C@@H](NC(=O)[C@H](CO)NC(=O)[C@H](CC(=O)O)NC(=O)[C@@H]1CCCN1C(=O)[C@H](Cc1ccc(O)cc1)NC(=O)[C@H](C)NC(=O)[C@H](CO)NC(=O)[C@@H](N)Cc1ccc(O)cc1)C(C)C)C(=O)N[C@@H](CO)C(=O)O [YSA] as the compound, how does the “Binding of immobilized synthetic peptide to EphA2 Fc” value (“Binding … to EphA2 Fc” below) (EphA2 [1]) read?
Answer: Its value is “bound to EphA2”.

Question: And the “Binding of immobilized synthetic peptide to EphA receptors (other than or including EphA2)” value (EphA receptors)?
Answer: Its value is “not to other EphA receptors”.

Question: What about the “Binding of synthetic peptide to receptors of the EphB family” value (EphB receptors) of the same compound?
Answer: Its value is “lack the ability to bind to receptors of the EphB family”.

Question: And the MAP kinase activation (MAP kinase)?
Answer: The MAP kinase activation was “activates a previously described Eph2A signaling pathway that suppresses MAP kinase activation”.

Question: What about the “Inhibition of ephrin binding to immobilized EphA2” value (EphA2 [2]) of the same compound?
Answer: Its value is “inhibit, in a concentration dependent manner”.

Question: And the “Inhibition of A-ephrin binding to immobilized EphA4 by EphA2-binding peptides” value (EphA4 [3]; ephrin-A5-AP, ephrin-A6-AP)?
Answer: The value was “not EphA4”.

Question: And the “Competition of synthetic peptide with phage binding to immobilized EphA2” value (EphA2 [4])?
Answer: Its value is “competes with SWL phage”.

Question: What does the source list for “A3 peptide: Twelve-mer synthetic peptide corresponding to the G-H loop of ephrin-A3”?
Answer: Binding of immobilized synthetic peptide to EphA2 Fc (EphA2 [1]): bind EphA2, albeit more weakly than the YSA peptide; Binding of immobilized synthetic peptide to EphA receptors (other than or including EphA2) (EphA receptors): bind promiscuously to all EphA receptors; Inhibition of ephrin binding to immobilized EphA2 (EphA2 [2]): did not compete with ephrin-A5 for binding to EphA2; Competition of synthetic peptide with phage binding to immobilized EphA2 (EphA2 [4]): did not inhibit phage binding

Question: For “A5 peptide: Twelve-mer synthetic peptide corresponding to the A-A′ β-strand of ephrin-A5”, which “Binding … to EphA2 Fc” value (EphA2 [1]) is on record?
Answer: Its value is “bind EphA2, albeit more weakly than the YSA peptide”.

Question: And the “Binding of immobilized synthetic peptide to EphA receptors (other than or including EphA2)” value (EphA receptors)?
Answer: Its value is “bind promiscuously to all EphA receptors”.

Question: And the “Inhibition of ephrin binding to immobilized EphA2” value (EphA2 [2])?
Answer: The value was “enhanced both phage and ephrin-A5 binding to EphA2”.

Question: What about the “Competition of synthetic peptide with phage binding to immobilized EphA2” value (EphA2 [4]) of the same compound?
Answer: The value was “enhanced both phage and ephrin-A5 binding to EphA2”.

Question: How did the “EphB4 bound compared to other EphB family receptors” value (EphB4 [5]) turn out when DALNDWLLFRPW (DAL peptide) was run?
Answer: Its value is “four-fold”.

Question: And the “Binding of phage clones to EphB4 Fc” value (EphB4 [6])?
Answer: The value was “bound to EphB4 Fc”.

Question: With IPWTQHMAMSPM (IPW peptide) as the compound, how does the “Binding of phage clones to EphB4 Fc” value (EphB4 [6]) read?
Answer: The value was “bound to EphB4 Fc”.

Question: Which “Binding to further EphA receptors of EphA7-binding peptides” value (shortened to “Binding to further EphA receptors”) (EphA7) does the source give for KHLPFYPHPTSP (EphA7-binding peptide) here?
Answer: Its value is “also binds to EphA3, EphA5, and EphA6”.

Question: With KYLPYWPVLSSL (KYL peptide) as the compound, how does the “Selectivity of synthetic peptide for EphA4” value (EphA4 [7]) read?
Answer: The value was “exhibited some binding to other EphA and EphB receptors”.

Question: And the “Binding preference of phage clones for EphA4” value (EphA4 [8])?
Answer: The value was “preferential binding to EphA4”.

Question: What about the “Antagonism of ephrin-A5 binding to EphA4” value (EphA4 [3]) of the same compound?
Answer: Its value is “antagonize ephrin-A5 binding to EphA4 in a concentration-dependent manner”.

Question: And the “Peptide concentration that almost completely inhibited ephrin binding” value (EphA4 [3]; ephrin-A5 AP binding to EphA4)?
Answer: Its value is 1 µM.

Question: And the “Selectivity of block of ephrin-A5 AP binding to EphA4 compared to other EphA receptors” value (EphA4 [3]; peptide 50 μM)?
Answer: Its value is “preferentially”.

Question: And the “Ephrin-A3-induced tyrosine phosphorylation (activation) of endogenous EphA4” value (EphA4 [9])?
Answer: Its value is “blocked EphA4 tyrosine phosphorylation at lower concentrations than the APY and VTM peptides; also recorded: antagonize ephrin-A3 induced activation of endogenous EphA4”.

Question: What about the “Migration of neural crest cells” value (neural crest cells) of the same compound?
Answer: Its value is “ectopic migration of neural crest cells into the caudal half-sclerotome”.

Question: NHWLDTLFPMHM (EphA4-binding peptide) was tested. Which “Binding preference of phage clones for EphA4” value (EphA4 [8]) did it give?
Answer: Its value is “preferential binding to EphA4”.

Question: With SGHQLLLNKMPN (SGH peptide) as the compound, how does the “Binding of phage clones to EphB4 Fc” value (EphB4 [6]) read?
Answer: Its value is “bound to EphB4 Fc”.

Question: Which results are given for SLRDTYMRAKVL (SLR peptide)?
Answer: Binding selectivity of peptides isolated on EphA5 (EphA5): selective binding to this receptor; Binding selectivity of peptides isolated on EphA5 (EphA5; listed as SLR): selectively bind to EphA5

Question: With SVSVGMKPSPRP (SVS peptide) as the compound, how does the “Binding to further EphA receptors” value (EphA7) read?
Answer: The value was “also binds to EphA3 and EphA6”.

Question: For VADRYAVYWNSSNPR (extended A5 peptide), which “Binding … to EphA2 Fc” value (EphA2 [1]) is on record?
Answer: The value was “exhibits a similar weak binding”.

Question: What does the source list for VTMEAINLAFPG (VTM peptide)?
Answer: Binding preference of phage clones for EphA4 (EphA4 [8]): preferential binding to EphA4; Antagonism of ephrin-A5 binding to EphA4 (EphA4 [3]): antagonize ephrin-A5 binding to EphA4 in a concentration-dependent manner; Mode of inhibition of ephrin binding (EphA4 [3]; inhibition curves at different ephrin concentrations): competitively inhibits ephrin binding; Ephrin-A3-induced tyrosine phosphorylation (activation) of endogenous EphA4 (EphA4 [9]): antagonize ephrin-A3 induced activation of endogenous EphA4

Question: WASHAPYWPHPP (EphA7-binding peptide) was tested. Which “Binding to further EphA receptors” value (EphA7) did it give?
Answer: Its value is “also binds to EphA3”.

Question: What does the source list for WDCNGPYCHWLG (WDC peptide)?
Answer: Binding selectivity of peptides isolated on EphA5 (EphA5): selective binding to this receptor; Binding selectivity of peptides isolated on EphA5 (EphA5; listed as WDC): selectively bind to EphA5

Question: WTFPVLWDDKHP (WTF peptide) was tested. Which “Binding selectivity of peptides isolated on EphA5” value (EphA5) did it give?
Answer: Its value is “also binds to EphA6”.

Question: What about the “Binding selectivity of peptides isolated on EphA5” value (EphA5; listed as WTF) of the same compound?
Answer: Its value is “binds to both EphA5 and EphA6”.

Reference: patent US8461119B2, “Agents that modulate Eph receptor activity” (The Burnham Institute, priority 2002, dated 2013)
